Measured values reported in US7183099B2, “Inhibitors of autoinducer transporters” (Princeton University, priority 2001, dated 2007).

How the values were obtained:
metE-lacZ fusion = metE-lacZ fusion transcription; assay type: cell-based, S. typhimurium
Method: The insertion sites of the eight luxS regulated MudJ fusions were determined by arbitrary PCR amplification of the MudJ-chromosome fusion junctions, followed by BLAST database analysis (Caetano-Anolles, 1993; Altschul et al., 1990). One MudJ insertion was located in the metE gene. MetE is involved in the biosynthesis of methionine, that is a precursor of SAM (Weissbach and Brot, 1991). Specifically, MetE catalyzes the final step in methionine biosynthesis in the absence of vitamin B12. Transcription of metE is induced when the substrate homocysteine is available and when the intracellular concentration of methionine is low (Urbanowski and Stauffer, 1989). We reason that metE is not a true target of AI-2 regulation, but instead metE transcription is induced in the wild type luxS strain relative to the luxS null strain because homocysteine is produced during the generation of AI-2 in the LuxS^+ strain.

[1] = system: ftsQ1p2p-lacZ reporter (SdiA); assay: SdiA regulated ftsQ1p2p-lacZ reporter assay; assay type: cell-based, E. coli; conditions: 10% osmotic shock fluids containing AI-2 activity, 2 h
Description: Analysis of the effect of autoinducer on SdiA regulated gene expression. A sequence that includes the ftsQ1p and ftsQ2p promoters (Wang et al., 1991, supra) was amplified from E. coli MG1655 chromosomal DNA using the following primers: • ftsQ1p, 5′-[…]-3′ (SEQ ID NO: 19); • ftsQ2p, 5′-[…]-3′ (SEQ ID NO: 20).
The amplified product contained both the ftsQ promoters and the first 14 codons of the ftsQ gene flanked by BamHI and Bg1II sites. The ftsQ1p2p PCR product was cloned into the BamHI site of vector pMLB1034 (Silhavy et al., Experiments with Gene Fusions, Cold Spring Harbor Press, 1984) to generate a lacZ fusion that contained the promoters, ribosome binding site, and initiation codon of ftsQ. A correctly oriented clone, pMS207, and a clone containing the ftsQ1p2p insert in the opposite orientation, pMS209, were chosen for further analysis. Both inserts were sequenced to ensure that no errors were introduced during the PCR reaction.
For ftsQ regulation in E. coli, the plasmids pMS207 and pMS209 were transformed into E. coli strain MC4100 (Silhavy et al., 1984, supra), and the transformants were grown overnight in LB containing 100 mg/L ampicillin at 30° C. with aeration. For rck regulation, S. typhimurium strains BA1105 (rck::MudJ) and BA1305 (rck::MudJ sdiA) were grown overnight in LB containing 100 mg/L kanamycin at 30° C. with aeration. […]

Lsr ABC transporter [2] = molecular target: T1, Lsr ABC transporter (Salmonella typhimurium, UniProt Q8ZKQ1); assay: Removal of exogenous AI-2 from S. typhimurium culture fluids; assay type: cell-based; conditions: for input AI-2 activity remaining: wild type lsrR strain
T1 construct: containing a wild type lsr operon; endogenous in cells; host or cells: S. typhimurium 14028 derivatives in a luxS null background (parent SS007, luxS::T-POP; also MET342, ΔlsrR)
Method: (§1) Cultures of S. typhimurium luxS null strains containing a wild type lsr operon or containing mutations inactivating lsr genes were grown to mid-exponential phase in LB at 37° C. AI-2 prepared by our in vitro method was added to the cultures, and the cultures were incubated with the AI-2 for an hour. Subsequently, the cells were removed from the culture fluid by centrifugation, and the resulting cell-free culture fluids were assayed for AI-2 activity using the V. harveyi AI-2 bioassay. This assay involves measuring the increase in light production of a V. harveyi quorum sensing reporter strain that induces bioluminescence exclusively in response to the presence of AI-2. In the present experiment, the bioassay allowed us to determine the level of AI-2 activity remaining in the culture fluids of the different S. typhimurium mutants. Since all the S. typhimurium strains we used in this experiment contained null mutations in luxS, the only AI-2 that could be present in the cell-free culture fluids came from that that we added exogenously.
(§2) Relative levels of AI-2 in cell-free culture fluids of S. typhimurium strains of interest were measured using a V. harveyi bioluminescence assay, as described previously (Bassler et al., 1993; Bassler et al., 1997). Cell-free culture fluids were prepared as described (Surette and Bassler, 1998; Surette et al., 1999). These preparations were assayed for AI-2 activity at 10% (vol/vol), using V. harveyi reporter strain BB170 (luxN::Tn5), as described (Bassler et al., 1993). AI-2 activity is reported as fold induction over background of bioluminescence. To examine the role of Lsr in the uptake of AI-2, cultures of S. typhimurium were grown overnight, diluted 1:100 into fresh LB, and grown for a total of 4 hours. During the final hour of growth, the cells were incubated with 70 μM in vitro prepared AI-2 for specified times (Schauder et al., 2001). Subsequently, the cultures were chilled on ice and cell-free culture fluids were prepared. The AI-2 remaining in these preparations was measured in the V. harveyi bioluminescence assay. Assays were performed in duplicate.

Lsr ABC transporter [3] = assay: as above; assay type: cell-based; conditions: 1 h
Method: as §1, §2

[4] = wild type lsr strain (luxS null), 1 h incubation

CC(=O)C(=O)C(O)CO (stereo not drawn) [AI-2, 4,5-dihydroxy-2,3-pentanedione]
effect of exogenous AI-2 on transcription of the metE-lacZ fusion (metE-lacZ fusion): did not affect the transcription of the metE-lacZ fusion | change in β-galactosidase level of MC4100/pMS207 [1]: this level of activity did not change under any of the conditions tested here | activity gone from the culture fluids (Lsr ABC transporter [2]; inactivation of lsrR, 1 h incubation): over 99% | AI-2 activity remaining (induction of the bioassay strain) (Lsr ABC transporter [2]; [4]): 80 fold | disappearance of AI-2 activity from the culture fluid (Lsr ABC transporter [2]; [4]): 92% | input AI-2 activity remaining (Lsr ABC transporter [2]; 2 min): 97% | input AI-2 activity remaining (Lsr ABC transporter [2]; 15 min): 85% | input AI-2 activity remaining (Lsr ABC transporter [2]; 30 min): 82% | input AI-2 activity remaining (Lsr ABC transporter [2]; 45 min): 75% | input AI-2 activity remaining (Lsr ABC transporter [2]; 60 min): 6% | elimination of AI-2 from the culture fluids (Lsr ABC transporter [3]; MudJ insertion mutants in lsrA, lsrC and lsrB): unable to eliminate AI-2 from the culture fluids | level of AI-2 versus input (Lsr ABC transporter [3]; ΔlsrR, lsrC::MudJ double mutant): the level of AI-2 did not decrease compared to the input activity
